Source: article PMC11207052, “Synthesis, Biological, and Computational Evaluations of Conformationally Restricted NAD-Mimics as Discriminant Inhibitors of Human NMN-Adenylyltransferase Isozymes” (Pharmaceuticals, 2024)
Where a name gives a salt, the structure may show the parent alone. Read-outs that look alike come from different tables or passages of the source. Values belong to the compound of their own block, whether it stands above or below them.

Experiments:
[1] = target: T1, hNMNAT-2 (Homo sapiens, UniProt Q9BZQ4); experiment: NMN adenylyltransferase activity assay (pyrophosphatase-coupled, malachite green), hNMNAT-2; format: biochemical; parameters: key to mode of inhibition (in brackets) towards NMN, hNMNAT-2 / mode of inhibition (in brackets) towards ATP, hNMNAT-2: M, mixed inhibition; C, competitive; U, uncompetitive; conditions: for enzyme inhibition in the initial screening, hNMNAT-2: fixed concentration of 0.5 mM inhibitor; for Ki: inhibitor 30 and 90 µM, ± std. error, αKi in the case of uncompetitive inhibition
T1 construct: made in house
T1 sequence (Q9BZQ4 whole entry): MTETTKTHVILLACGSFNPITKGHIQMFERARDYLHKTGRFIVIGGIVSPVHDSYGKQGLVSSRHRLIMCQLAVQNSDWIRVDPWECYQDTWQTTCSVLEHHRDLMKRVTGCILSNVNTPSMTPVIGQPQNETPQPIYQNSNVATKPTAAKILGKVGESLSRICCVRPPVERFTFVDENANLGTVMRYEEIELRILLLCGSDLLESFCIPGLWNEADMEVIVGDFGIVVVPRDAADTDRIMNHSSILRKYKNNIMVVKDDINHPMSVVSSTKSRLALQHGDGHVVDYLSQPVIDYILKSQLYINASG
Source text: (§1) The reaction catalyzed by NMN adenylyltransferase can be represented as NMN + ATP (NAD + PPi). To avoid interference of methyl NAD analogues with NAD-based detection assays, we used a “pyrophosphate-dependent” coupled assay that couples NMNAT activity with inorganic pyrophosphatase (PPase) that hydrolyzes PPi into two molecules of inorganic phosphate (Pi). Phosphate was quantified using a malachite green dye as described. Enzyme purification procedures followed previous reports. The reactions were carried out using a 96-well microplate assay format at room temperature in a total volume of 50 µL per well. The reaction mixtures contained 100 mM Hepes, pH 7.5, 10 mM MgCl2, 0.1 mg/mL bovine serum albumin, and an excess of 4 U/mL of inorganic pyrophosphatase. The hNMNAT concentration, ranging from 3 to 15 nM, was adjusted in different tests to ensure initial velocity conditions (5–10% substrate depletion) while retaining a linear response. An amount of 100 µL of the malachite green reagent was added to each well to stop the reactions. Following a 20–30 min incubation period, the molybdate in the reagent formed a complex with the free phosphate, resulting in full-color development. The phosphate concentration was then quantified by measuring the absorbance at 620 nm using a microplate reader (Biotek Synergy HT) and interpolating these values against a pre-established standard curve. Absorbance from control reactions performed in the absence of hNMNAT were subtracted from absorbances of the respective reactions with the enzyme to account for background hydrolysis. Details for substrate and inhibitor concentration range are given below and in the legend of Figure 2. Assays with the inhibitors were carried out in triplicate, and the percentage of inhibition at each concentration was calculated for the initial screening at 0.5 mM.
(§2) Values for inhibition constant Ki and α were determined by fitting the data to the rate equation for general mixed model inhibition: V = VmaxS/[Km(1 + I/Ki) + S(1 + I/[…])] using GraphPad Prism software version 7.05, where Vmax and Km are the classic Michaelis–Menten parameters, Ki is the equilibrium dissociation constant for the enzyme-inhibitor complex, S and I are the substrate and the inhibitor concentration, respectively. This model includes competitive, uncompetitive, and noncompetitive inhibition as special cases that the α values can diagnose. Further mechanistic insights into the mode of inhibition were drawn by graphical inspection of the Lineaweaver–Burk plots.

[2] = target: T2, hNMNAT-3 (Homo sapiens, UniProt Q96T66); experiment: NMN adenylyltransferase activity assay (pyrophosphatase-coupled, malachite green), hNMNAT-3; format: biochemical; parameters: key to mode of inhibition (in brackets) towards NMN, hNMNAT-3 / mode of inhibition (in brackets) towards ATP, hNMNAT-3: M, mixed inhibition; C, competitive; U, uncompetitive; conditions: for enzyme inhibition in the initial screening, hNMNAT-3: fixed concentration of 0.5 mM inhibitor; for Ki: inhibitor 30 and 90 µM, ± std. error, αKi in the case of uncompetitive inhibition
T2 construct: made in house
T2 sequence (Q96T66 whole entry): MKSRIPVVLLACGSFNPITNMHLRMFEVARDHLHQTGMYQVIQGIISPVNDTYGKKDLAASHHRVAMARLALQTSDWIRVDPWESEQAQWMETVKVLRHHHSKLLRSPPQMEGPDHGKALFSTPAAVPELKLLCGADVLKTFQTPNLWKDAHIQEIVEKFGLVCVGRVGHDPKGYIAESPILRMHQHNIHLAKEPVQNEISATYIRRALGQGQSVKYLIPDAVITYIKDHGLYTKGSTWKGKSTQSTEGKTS
Source text: as §1, §2

[3] = target: T3, hNMNAT-1 (Homo sapiens, UniProt Q9HAN9); experiment: NMN adenylyltransferase activity assay (pyrophosphatase-coupled, malachite green), hNMNAT-1; format: biochemical; parameters: key to mode of inhibition (in brackets) towards NMN, hNMNAT-1 / mode of inhibition (in brackets) towards ATP, hNMNAT-1: M, mixed inhibition; C, competitive; U, uncompetitive; conditions: for Ki: inhibitor 30 and 90 µM, ± std. error, αKi in the case of uncompetitive inhibition
T3 construct: made in house
T3 sequence (Q9HAN9 whole entry): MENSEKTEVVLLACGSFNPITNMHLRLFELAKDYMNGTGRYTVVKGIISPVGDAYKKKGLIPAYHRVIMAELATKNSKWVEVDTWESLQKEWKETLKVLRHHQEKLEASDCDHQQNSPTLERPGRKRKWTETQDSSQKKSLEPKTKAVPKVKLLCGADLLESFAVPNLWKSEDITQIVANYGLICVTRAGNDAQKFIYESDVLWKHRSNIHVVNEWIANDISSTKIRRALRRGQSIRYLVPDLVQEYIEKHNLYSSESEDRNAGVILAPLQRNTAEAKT
Source text: as §1, §2

[4] = target: T2, hNMNAT-3; parameters: method as in PMID 16118205, PMID 18336280; conditions: most sensitive isoform; cited from earlier work
[5] = fixed concentration of 0.5 mM inhibitor
[6] = ATP varied, NMN fixed (0.5 mM), read-out: Ki towards ATP, hNMNAT-2
[7] = NMN varied, ATP fixed (0.5 mM), read-out: Ki towards NMN, hNMNAT-2
[8] = steady-state kinetic analysis, versus ATP

enzyme inhibition in the initial screening, hNMNAT-2 [1]: absence of inhibition | enzyme inhibition in the initial screening, hNMNAT-3 [2]: absence of inhibition | enzyme inhibition in the initial screening, hNMNAT-1 [3, 5]: absence of inhibition
SMILES: C[C@@]1(O)[C@H](O)[C@@H](COP(=O)(O)O)O[C@H]1n1cnc2c(N)ncnc21 [2′-MeAMP (5), 9H-(2′-C-Methyl-β-D-ribofuranosyl)adenine-5′-monophosphate Tributyl Ammonium Salt]

enzyme inhibition in the initial screening, hNMNAT-2 [1]: absence of inhibition | enzyme inhibition in the initial screening, hNMNAT-3 [2]: absence of inhibition | enzyme inhibition in the initial screening, hNMNAT-1 [3, 5]: absence of inhibition
SMILES: C[C@@]1(O)[C@H](O)[C@@H](CO)O[C@H]1n1cnc2c(N)ncnc21 [Compound 11, 2′-MeAdo]

mode of inhibition (in brackets) towards ATP, hNMNAT-2 ([1]; ATP varied): U | Ki [1, 6]: 41 ± 14 µM | mode of inhibition (in brackets) towards NMN, hNMNAT-2 ([1]; NMN varied): M | Ki [1, 7]: 60 ± 18 µM | mode of inhibition versus ATP (in words), hNMNAT-2 [1, 8]: uncompetitive character | mode of inhibition (in brackets) towards ATP, hNMNAT-3 ([2]; ATP varied): C | Ki ([2]; ATP varied, NMN fixed (0.5 mM), read-out: Ki towards ATP, hNMNAT-3): 223 ± 22 µM | mode of inhibition (in brackets) towards NMN, hNMNAT-3 ([2]; NMN varied): C | Ki ([2]; NMN varied, ATP fixed (0.5 mM), read-out: Ki towards NMN, hNMNAT-3): 224 ± 17 µM | mode of inhibition (in brackets) towards ATP, hNMNAT-1 ([3]; ATP varied): U | Ki ([3]; ATP varied, NMN fixed (0.5 mM), read-out: Ki towards ATP, hNMNAT-1): 82 ± 14 µM | mode of inhibition (in brackets) towards NMN, hNMNAT-1 ([3]; NMN varied): C | Ki ([3]; NMN varied, ATP fixed (0.5 mM), read-out: Ki towards NMN, hNMNAT-1): 168 ± 19 µM | mode of inhibition versus ATP (in words), hNMNAT-1 [3, 8]: uncompetitive character
SMILES: C[C@@]1(O)[C@H](O)[C@@H](COP(=O)([O-])OP(=O)(O)OC[C@H]2O[C@@H]([n+]3cccc(C(=O)O)c3)[C@H](O)[C@@H]2O)O[C@H]1n1cnc2c(N)ncnc21 [2′-MeNaAD (3), P^1-[5′-(2′-C-Methyl-β-D-ribofuranosyl)adenine]-P^2-[5′-(β-D-ribofuranosyl)nicotinic acid] Pyrophospshate]

mode of inhibition (in brackets) towards ATP, hNMNAT-2 ([1]; ATP varied): M | Ki [1, 6]: 21 ± 3 µM | mode of inhibition (in brackets) towards NMN, hNMNAT-2 ([1]; NMN varied): M | Ki [1, 7]: 15 ± 3 µM | inhibition at 500 µM ([3]; fixed concentration of 0.5 mM inhibitor, read-out: enzyme inhibition in the initial screening, hNMNAT-1): < 50%
SMILES: C[C@@]1(O)[C@H](O)[C@@H](COP(=O)([O-])OP(=O)(O)OC[C@H]2O[C@@H]([n+]3cccc(C(N)=O)c3)[C@H](O)[C@@H]2O)O[C@H]1n1cnc2c(N)ncnc21 [2′-MeNAD (1), P^1-[5′-(2′-C-Methyl-β-D-ribofuranosyl)adenine]-P^2-[5′-(β-D-ribofuranosyl)nicotinamide] Pyrophosphate]
mode of inhibition (in words), hNMNAT-2 ([1]; steady-state kinetic analysis): mixed-type inhibition with a strong non-competitive character

SMILES: O=C(OC[C@H]1O[C@@H](OC(=O)c2cc(O)c(O)c(OC(=O)c3cc(O)c(O)c(O)c3)c2)[C@H](OC(=O)c2cc(O)c(O)c(OC(=O)c3cc(O)c(O)c(O)c3)c2)[C@@H](OC(=O)c2cc(O)c(O)c(OC(=O)c3cc(O)c(O)c(O)c3)c2)[C@@H]1OC(=O)c1cc(O)c(O)c(OC(=O)c2cc(O)c(O)c(O)c2)c1)c1cc(O)c(O)c(OC(=O)c2cc(O)c(O)c(O)c2)c1 [Gallotannin]
IC50 [4]: 2 µM

enzyme inhibition in the initial screening, hNMNAT-2 [1]: absence of inhibition | enzyme inhibition in the initial screening, hNMNAT-3 [2]: absence of inhibition | enzyme inhibition in the initial screening, hNMNAT-1 [3, 5]: absence of inhibition
SMILES: C[C@@]1(O)[C@@H](COP(=O)(O)O)O[C@@H](n2cnc3c(N)ncnc32)[C@@H]1O [3′-MeAMP (6), 9H-(3′-C-Methyl-β-D-ribofuranosyl)adenine-5′-monophosphate Tributyl Ammonium Salt]

enzyme inhibition in the initial screening, hNMNAT-2 [1]: absence of inhibition | enzyme inhibition in the initial screening, hNMNAT-3 [2]: absence of inhibition | enzyme inhibition in the initial screening, hNMNAT-1 [3, 5]: absence of inhibition
SMILES: C[C@@]1(O)[C@@H](CO)O[C@@H](n2cnc3c(N)ncnc32)[C@@H]1O [Compound 12, 3′-MeAdo]
